From US6197335A, “Solid pharmaceutical compositions comprising a cyclosporin and an anionic surfactant” (Sherman; Bernard Charles, priority 1997, dated 2001)

Test: critical micelle concentration of the surfactant in water
Format: physicochemical
From the text: The ability of anionic surfactants to solubilize cyclosporins in water substantially increases when the concentration of the surfactant in water substantially exceeds the critical micelle concentration. Using sodium lauryl sulfate, for example, the critical micelle concentration is about 0.1% by weight.

critical micelle concentration: about 0.1 % by weight
SMILES: CCCCCCCCCCCCOS(=O)(=O)[O-].[Na+] [sodium lauryl sulfate]
